According to US9821000B2, “Compounds, compositions and corresponding uses for preventing and/or treating of dyslipidemia” (CENTRE NATIONAL DE LA RECHERCHE SCIENTIFIQUE (CNRS), priority 2013, dated 2017):

Columns and labels:
Assay type in all cases: cell-based, Saccharomyces cerevisiae
[1] = test system: hem1Δ yeasts; assay: Restoration of growth of lipo-intoxicated hem1Δ yeasts (drop test on agar); conditions: SFA accumulation conditions; 5 μl drops on agar; after three days
Method: FIG. 3B—The hem1Δ yeasts were cultivated in conditions of SFA accumulation as indicated. 5 μl drops of OAG, LPA and oleic acid in the concentrations indicated were then deposited on the surface of the agar medium. The restoration of growth of the hem1Δ yeasts is observed in the formation of colonies after three days.
The strain carrying the hem1Δ strain is cultivated, under aerobic conditions, under stirring and at 28° C., in a YPG^A liquid medium (YPG (yeast extract 1% (m/v), peptone 1% (m/v) and glucose 2% (m/v)) supplemented with δ-aminolevulinic acid (ALA) at 80 μg/mL). Lipotoxicity by saturated fatty acids (SFA) is prompted by depletion of unsaturated fatty acids (UFA)—the synthesis of which is dependent on the presence of haem (prosthetic grouping of the enzyme Ole1p especially)—by transfer into YPG^+ medium (YPG supplemented with ergosterol at 80 μg/mL to compensate for the depletion in sterol obtained under these conditions). The lipotoxicity can be induced in a solid medium YPG^++agar 2% (m/v) in transferring 3500 cells (hem1Δ coming from a pre-culture in YPG^A)/cm^2 or *alternatively in a liquid medium in inoculating 2·10^6 cells/mL of YPG^+. Classically, the effects of lipotoxicity on SFA are analyzed 7 h after the transfer into YPG^+ medium. The capacity of a compound to counter the deleterious effects of lipotoxicity with SFA is for its part evaluated successively with the addition of this compound on (or in) the YPG^+ transfer medium after seeding with cells.
1) Screening of compounds: Following the induction of lipotoxicity with SFA (for hem1Δ cultivated in a solid medium), 5 μL drops of solutions of different compounds at 10 mM in dimethylsulfoxide (DMSO) or in ethanol (EtOH) are deposited on the surface of agar. The capacity of a compound to counter the lipo-induced stoppage of cell growth is estimated by the appearance of a halo of hem1Δ colonies at the position of the deposit of said compound after three days of culture at 28° C. (cf. Deguil et al., 2011).

[2] = test system: hem1Δ yeasts; assay: Phospholipid fatty acid content by mass spectrometry in lipo-intoxicated hem1Δ yeasts
Method: The hem1Δ yeasts were cultivated in standard conditions (control) or in conditions of SFA accumulation without (Ø) or with the addition of 100 μM of oleic acid, LPA or OAG as indicated.
FIG. 6A—After 7 h of incubation, the phospholipids (PL) were extracted and the different species of phosphatidylcholine (PC), which constitute the predominantly present PL were analyzed by mass spectrometry in positive mode, according to Pineau et al. (2008).
FIG. 6B—All the species of PL detectable in these conditions of mass spectrometry were analyzed to globally quantify the content in SFA forms.
The hem1Δ strain is cultivated in a YPG^A, YPG^+ or YPG^+ liquid medium+200 μM of compound to be tested in aerobic conditions, under stirring and at 28° C. for 7 h, starting from an initial cell concentration of 2·10^6 cells/mL. At the end of the culture, 10^8 cells are collected in order to carry out the extraction of the total lipids. After the cells have been put in suspension in 1 mL of distilled water at 4° C., 500 μL of glass beads (Ø 0.6 mm) are added and the whole mixture then undergoes three sequences of 20 seconds at 5000 rpm in a stirrer (the tubes are kept on ice between each of the three sequences). The cellular lysate then obtained, complemented with water for rinsing the beads (1 mL), is then transferred into a 40 mL glass tube (Corex™) and then the lipids are extracted by using a methanol:chloroform ratio of 2:1 (v/v). Initially, 6 mL of methanol are added and the entire mixture is vortexed for 30 seconds and then incubated for 15 minutes at 65° C. Once the mixture has been cooled to ambient temperature, […] of chloroform is added and then the entire mixture is again vortexed for 30 seconds before allowing the extraction to take place for 16 h. Subsequently, the sample is centrifuged for 12 minutes at 10000 g and then the supernatant is transferred into a new Corex™ tube. After the addition of 2 mL of chloroform and then 4 mL of distilled water, the entire mixture is vortexed for 30 seconds and then centrifuged for 8 minutes at 3000 g. After elimination of the resultant upper phase, the lower organic phase is collected in a hemolysis tube made of glass. Finally, the solvent is evaporated under a nitrogen stream at 80° C. to obtain total cell lipid samples.
The samples of total cell lipids are put back into suspension in 1 mL of dichloromethane in being vortexed for 30 seconds. The entire mixture is deposited on a silica column (BOND ELUT-SI, 100 mg 1 mL) preconditioned with 3 mL of methanol and then 2 mL of dichloromethane successively. The fraction retained by the column is then washed with 2 mL of dichloromethane and then 2 mL of acetone successively. Finally, 2 mL of a mixture of chloroform/methanol/water 50:45:5 (v/v/v) are deposited on the column and the phospholipids thus eluted are collected in a glass hemolysis tube. The solvent is evaporated under nitrogen at 80° C. to obtain the samples of cellular phospholipids.
Once put back into suspension in 100 μL of mixture Mix^− (isopropanol/acetonitrile/water 2:1:1 (v/v/v)+triethylamine 1% (v/v)) or mixture Mix^+ (isopropanol/acetonitrile/water 2:1:1 (v/v/v)+formic acid 1% (v/v)), the samples are analyzed by mass spectrometry (Electro Spray Ionization-Mass Spectrometry (ESI-MS)) in negative or positive mode respectively and the results obtained serve to analyze the fatty acid content of the different species of phospholipids.

[3] = test system: QM strain; assay: Toxicity test on QM strain (growth inhibition haloes); conditions: after three days
Method: 5 μl drops of OAG, LPA or oleic acid were deposited, from stock solutions in the concentrations indicated, on the surface of an agar medium on which the QM strain had been preliminarily spread. […] These haloes are on the contrary not observed in the presence of LPA and OAG.
At the same time, wild strains (WT) and QM are cultivated in aerobic conditions under stirring and at 28° C., in a YPG liquid medium before seeding 3500 cells per cm^2 of YPG+agar 2% (m/v). Following this transfer to solid medium, 1 μL drops of solutions of different compounds at 1, 10 and 100 mM in DMSO or EtOH are deposited on the surface of the agar. Separately, deposits of DMSO and EtOH are also made in order to assess the intrinsic toxicity of these two solvents. After three days of culture of 28° C., the toxicity of the tested compounds is evaluated by comparing the diameters of the growth inhibition haloes obtained for the deposits of undissolved solvents with those of the deposits of different concentrations of compounds tested.

## CCCCCCCC/C=C\CCCCCCCC(=O)O [oleic acid, reference compound]
[1]
  restoration of growth of lipo-intoxicated hem1Δ yeasts (formation of colonies): restore the growth
[2]; hem1Δ yeast model
  plasticity of membranes previously lipo-intoxicated by SFAs: restores the plasticity of the membranes
[2]; hem1Δ, SFA accumulation, 100 μM compound, 7 h
  production of di-unsaturated phospholipids (level of PC species 36:2): increase of the level of this species
[3]; QM strain on agar medium
  toxicity for cells that do not synthesize triglycerides: toxicity
[3]; QM strain, 5 μl drops on agar
  haloes of growth inhibition (absence of colonies): haloes of growth inhibition (absence of colonies) can be observed
